In patent US20030119797A1, “Methods for selective immunomodulation” (priority 2001, published 2003):
“Also recorded” adds a separate entry of the source. Like-named read-outs stand apart in the source and are kept apart here.

Experiments:
[1] = tested on: promoter for human IL-2; experiment: IL-2 reporter gene assay; format: cell-based; settings: read-out: IC50 (concentration required for 50% inhibition)
From the text: The reporter gene is any gene expressing a readily observable product, e.g., an enzyme marker such as β-galactosidase or luciferase, or any other suitable enzyme marker. For example, where the enzyme marker is β-galactosidase, the reporter gene is, e.g., a bacterial lacZ gene; where the enzyme marker is luciferase, the gene is, e.g., a Phorinus luciferase gene. […] The promoter gene is a promoter gene for a cytokine or protein for which transcription is stimulated or suppressed by the drug to be monitored.
Blood samples from the patient are diluted, their effect on gene expression in the above described system is measured, and the assay is standardized using known concentrations of the immunosuppressive material.

[2] = tested on: mixed-lymphocyte reaction; experiment: mixed-lymphocyte reaction (MLR) assay; format: cell-based, mouse
From the text: In addition to the IL-2 reporter gene assay, the concentration of immunosuppressants, such as pimecrolimus and FK506 can be measured by the mixed-lymphocyte reaction (see Meo, “The MLR in the Mouse”, Immunological Methods, Lefkovits and Pernis, Eds., p. 227 Academic Press, NY).

[3] = human, in vivo
Description: In this study pimecrolimus was rapidly absorbed with a median tmax across all the dose groups and collection days of between 0.8 and 2.0 hours. […] There was no effect of age or weight on the apparent clearance of pimecrolimus.

[4] = tested on: SCID mice reconstituted with CD4+CD45RBHi T cells (SCID-IBD); experiment: SCID-IBD mouse model, treatment started the day after T cell transfer; format: in vivo
From the text: It is known that the transfer of syngeneic, naive T lymphocytes (CD4^+CD45RB^Hi) into SCID mice results in a severe colitis and wasting disease, SCID-IBD.
In this study, SCID mice reconstituted with CD4^+CD45RB^Hi T lymphocytes were used. These mice are known to develop chronic colitis with characteristics similar to human IBD, as described above.
[…] […] BW was monitored throughout. On termination, blood was withdrawn, spleen, mesenteric lymph nodes (MLN) and colon were removed. Serum haptoglobin levels were measured (ELISA), colitis was assessed histologically and lymphocyte and neutrophil numbers were calculated from FACS analysis of blood, spleen and MLN cell suspensions.
In order to determine the efficacy of ASM981 treatment in preventing intestinal mucosal damage in SCID-IBD mice, a histological examination of the colon sections was performed according to defined morphological parameters. All colon sections were assessed according to a scheme awarding degrees of severity governed by the extent of cell infiltration and inflammation with a score of 8 being the maximum.

[5] = tested on: SCID mice reconstituted with CD4+CD45RBHi T cells (SCID-IBD); experiment: SCID-IBD mouse model, delayed treatment of established IBD; format: in vivo; settings: 100 mg/kg/day p.o. started after 7, 14 or 21 days, until 41 days
Description: In order to determine if pimecrolimus is also effective once IBD is established, SCID mice were treated with pimecrolimus at a dose level of 100 mg/kg/day at days 7, 14 or 21 following the transfer of the disease causing CD4^+ T cells. The study was terminated after 41 days, i.e., the mice were treated for 33, 26 and 19 days, respectively. The results are shown in FIGS. 10-12, and described below.
SCID mice were reconstituted with 2×10^5 CD4^+CD45RB^Hi T cells and treatment with pimecrolimus (100 mg/kg/day p.o.) started after 7, 14 or 21 days and continued daily until 41 days. Treatment with the placebo formulation started after 7 days. BW was monitored once a week for the first 2 weeks and then twice weekly. Data are expressed as mean percent BW relative to the weight on day 0±s.e.m. for n=9 (PBS), n=8 (ASM(7d) & ASM(21d) and n=7 (ASM(14d) and placebo) mice per group. PBS refers to the non-transferred mice which have been pooled with regard to percent BW values since no treatment dependent changes were found. p<0.01 relative to the placebo-treated group at 41 days.
SCID mice were reconstituted with 2×10^5 CD4^+CD45RB^Hi T cells and treatment with pimecrolimus (100 mg/kg/day p.o.) started after 7,14 or 21 days and continued daily until 41 days. […] Data are expressed as mean haptoglobin (mg/mL)±s.e.m. for n=9 (PBS), n=8 (ASM(7d)) and n=7 (ASM(14d), ASM(21d) and placebo) mice per group. […]

[6] = tested on: allergic contact dermatitis (ACD); experiment: Rat model of allergic contact dermatitis (ACD); format: in vivo; settings: oral, same doses
[7] = tested on: systemic immune responses; experiment: Models of systemic immunosuppression (graft-versus-host reaction, antibody formation to sheep red blood cells, kidney transplantation); format: in vivo, rat
From the text: Pimecrolimus (also called ASM981 and ELIDEL®) is an ascomycin macrolactam-derivative with anti-inflammatory properties, chemical name is 33-epichloro-33-desoxy-ascomycin. Pimecrolimus is an ascomycin macrolactam-derivative developed originally for topical and oral treatment of inflammatory skin diseases such as atopic dermatitis and psoriasis. Pimecrolimus binds to macrophilin-12 and inhibits the Ca-dependent phosphatase calcineurin. As a consequence, it inhibits T cell activation and blocks the transcription and release of both Th1 and Th2 inflammatory cytokines. […] Tachyphylaxis has not been observed.

[8] = in vivo; settings: rat, po, 25 mg/kg
Description: In another study designed to explore the differences between pimecrolimus and FK506 and to determine whether these differences might be associated with a different tissue distribution, the exposure to pimecrolimus and FK506 in various organs after oral administration were measured. Animals received 2 oral doses of 25 mg/kg in an interval of 2 hours. […] Pimecrolimus was found consistently to have a higher skin/blood concentration ratio than FK506 (2 hours: 7.3 vs. 2.8; 6 hours: 13 vs. […]; 24 hours: 36 vs. 6.0). The AUC0-24h in skin calculated for pimecrolimus was twice as high as with FK506.
These distribution characteristics are relevant not only for oral, but also for topical application, as the compound enters systemic circulation after permeation through the skin.

[9] = tested on: allergen induced airway eosinophilia; experiment: Mouse model of asthma: aeroallergen induced eosinophil influx into the lungs of sensitized mice; format: in vivo
[10] = tested on: antigen-induced pulmonary eosinophilia; experiment: Rat model of asthma: antigen-induced pulmonary eosinophilia in actively sensitized Brown Norway Rats; format: in vivo; settings: single and multiple challenge models
From the text: Another study looked at the effects of oral administration of pimecrolimus on antigen-induced pulmonary eosinophilia in actively sensitized Brown Norway Rats.

[11] = tested on: CYP3A enzyme subfamily; experiment: Elimination / metabolism of pimecrolimus; format: in vitro ADME
[12] = tested on: allergic contact dermatitis (ACD); experiment: Skin inflammation and lymph nodes during sensitization and elicitation phase of ACD; format: in vivo
[13] = tested on: psoriatic patients; settings: human, in vivo
Description: A clinical study was initiated with an oral formulation of pimecrolimus to treat psoriatic patients. Pimecrolimus was evaluated as treatment for psoriasis using an oral dose of 60 mg (30 mg b.i.d) during a 4-week clinical study. The cohort included 10 patients; 8 received the treatment and 2 received a placebo.
The dose used in the study was 60 mg/day, given as 30 mg b.i.d. To make this dose the 20 mg tablets were cut in half using a special cutter (Tablettenteiler NR.96) so as to obtain 30 mg of pimecrolimus or a matched amount of placebo.
In this study the relationship of trough concentration to clinical results was also determined.

[14] = tested on: gene expression in blood cells; settings: days 13 or 14 vs baseline, 30 mg b.i.d. oral
Description: Pimecrolimus was evaluated as treatment for psoriasis using an oral dose of 60 mg (30 mg b.i.d) during a 4-week clinical study. The cohort included 10 patients; 8 received the treatment and 2 received a placebo. Blood samples were collected before the first administration to establish the gene expression baseline and on days 13 or 14 after treatment with pimecrolimus or placebo and submitted to gene expression analysis in order to gain insights into the mechanisms of action of the compound.
The RNA from blood samples drawn from each patient in the study was extracted and tested on individual DNA microarrays, thus allowing, for each patient, a comparison of gene expression before and after pimecrolimus treatment. […] Genes that were consistently modulated were sorted in functional categories.

[15] = in vivo, po
[16] = tested on: IBD patients; settings: cited from earlier work

33-epichloro-33-desoxy-ascomycin [Pimecrolimus]
IC50 [1]: 1.5 nM
IC50 [2]: 9 nM
time to steady-state [3]: 6 to 13 days
dose dependence of Cmax and AUCτ ([3]; po): dose proportional
effect of age or weight on the apparent clearance ([3]; po): no effect
trough concentration associated with a significant clinical response in the target epithelial tissue ([3]; po): ≥ 7 ng/mL
AUCτ,b Mean ± SD ([3]; po, 10 mg): 102.8 ± 41 .4 ng · h/mL
Cmax,b Mean ± SD ([3]; po, 20 mg): 42 4 ± 10.8 ng/mL
colitis, histological examination of colon sections ([4]; 30 mg/kg/day p.o.): moderate to severe inflammation
colitis, histological examination of colon sections ([4]; 60 mg/kg/day p.o.): moderate
inhibition of lymphocyte numbers in blood, spleen and MLN ([4]; 100 mg/kg/day): not observed
mice with macroscopically normal feces ([4]; 100 mg/kg/day group): Approximately half of the mice
colitis, histological examination of colon sections ([4]; 100 mg/kg/day p.o.): only mildly inflamed colons
neutrophil infiltration into the colon (myeloperoxidase activity in colon homogenates) ([4]; 100 mg/kg/day p.o.): completely blocked
loss of BW associated with the disease ([4]; oral, 4 weeks, dose range 30-100 mg/kg/day, dose-responsive): prevented the severe loss of BW
diarrhea ([4]; p.o., 30-100 mg/kg/day): improved in a dose-dependent fashion
severe colitis relative to placebo-treated SCID-IBD mice ([4]; p.o., 30-100 mg/kg/day): significantly inhibited
blood and spleen neutrophilia associated with established/ongoing colitis [5]: strongly inhibits
loss of BW associated with established/ongoing mild to severe colitis [5]: highly-effective in reversing the loss of BW
efficacy compared to FK506 [6]: superior
therapeutic window of anti-inflammatory activity in the skin versus systemic immunosuppression as compared to FK506 ([7]; rats, q.d., s.c.): clearly increased therapeutic window
systemic immunosuppressive effects compared to CyA or FK506 ([7]; transplantation and vaccination models): only a low potential to impair systemic immune responses; also recorded: minimal general systemic immunosuppressive effects
AUC0-24h in skin relative to FK506 [8]: twice as high
exposure in all other tissues, including blood, lymph nodes and kidney [8]: lower than to FK506
allergen induced airway eosinophilia and IL-4 cytokine production ([9]; mouse, single and multiple challenge models): inhibit
eosinophil count in the lung and eosinophil peroxidase activity ([9]; sensitized mice, oral administration): able to reduce
allergen induced airway eosinophilia and IL-4 cytokine production [10]: inhibit
route of elimination [11]: predominantly via metabolism involving an oxidative mechanism catalyzed by the CYP3A enzyme subfamily
primary site of action [12]: primarily interferes with inflammation in the skin
change in physical examination, blood pressure, electrocardiogram, safety laboratory tests or renal function [13]: no clinically significant change was observed
serious adverse side effects [13]: no serious adverse side effects in any patient
expression of Kallistatin [14]: up-regulated
expression of asthma related genes (RANTES, GALECTIN-3, Thromboxane A2 receptor, Glutathione peroxidase) [14]: specifically and significantly down-regulated
expression of genes necessary for chemotaxis and cellular migration (LFA-1, P-selectin ligand, L-selectin) [14]: dramatic down-regulation
expression of genes of the Macrolactam target pathway (macrophilin 12), cellular activation and proliferation (Histone2, Histone 3.3, cyclin D2) [14]: down-regulate
expression of inflammatory mediators (Leukotriene A4 hydrolase, prostaglandin endoperoxide synthase) [14]: strongly down regulate
drug accumulation [15]: does not lead to drug accumulation in the blood or tissues

Cn1cnc([N+](=O)[O-])c1Sc1ncnc2nc[nH]c12 [AZA, Azathioprine, reference compound]
patients who get pancreatitis or more severe allergic reactions ([16]; human, in vivo): 3-15%

O=C(O)c1cc(/N=N/c2ccc(S(=O)(=O)Nc3ccccn3)cc2)ccc1O [Sulphasalazine, reference compound]
healthy control subjects reporting side effects related to the sulphapyridine moiety ([16]; healthy control subjects): ≤ 80%
patients reporting side effects related to the sulphapyridine moiety ([16]; patients): up to 45%

C[C@@H]1C[C@H]2[C@@H]3CCC4=CC(=O)C=C[C@]4(C)[C@@]3(F)[C@@H](O)C[C@]2(C)[C@@]1(O)C(=O)CO [dexamethasone, Dexamethasone, reference compound]
BW at the doses needed to inhibit colitis ([4]; 3 and 10 mg/kg/day p.o.): steroid-related accelerated loss in BW

Infliximab: chimeric anti-TNF alpha antibody
patients in whom remission is achieved ([16]; CD patients, infusion): up to 60%
patients who develop side effects ([16]; e.g., nausea, upper respiratory tract infections, abdominal pain and headache): up to 60%
patient population which develops human anti-chimeric antibodies ([16]; human, in vivo): 13-30%
patients who suffered serious infusion reactions ([16]; human, in vivo): Sixteen percent

C=CC[C@@H]1/C=C(\C)C[C@H](C)C[C@H](OC)[C@H]2O[C@@](O)(C(=O)C(=O)N3CCCC[C@H]3C(=O)O[C@H](/C(C)=C/[C@@H]3CC[C@@H](O)[C@H](OC)C3)[C@H](C)[C@@H](O)CC1=O)[C@H](C)C[C@@H]2OC [FK506, tacrolimus, reference compound]
IC50 ([2]; Mus musculus): 1 nM
Kp at 2 h [8]: 2.8
Kp at 24 h [8]: 6
skin/blood concentration ratio ([8]; 6 h): 1.6
primary site of action [12]: acts primarily on the subcutaneous lymphoid tissue
